Reference: PubChem BioAssay AID743111 (Vanderbilt Specialized Chemistry Center, 2013)
Active and inactive are the calls of the source.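 Rule for the calls: active = response above 60% of the acetylcholine maximum at the M5 muscarinic receptor, read as positive allosteric modulation; inactive = the rest.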

The compounds below were run against Muscarinic acetylcholine receptor M5 (Rattus norvegicus) (UniProt P08911) (assay: rat M5 receptor positive allosteric modulators, dose response, selectivity assay for M5 PAM project, cell-based, rat ortholog, CHO-K1, calcium flux, ACh EC20 (AID 743111)). Conditions: CHO-K1 rat M5, Fluo-4 calcium flux.
Muscarinic acetylcholine receptor M5 (Rattus norvegicus), sequence (P08911 whole entry, looked up): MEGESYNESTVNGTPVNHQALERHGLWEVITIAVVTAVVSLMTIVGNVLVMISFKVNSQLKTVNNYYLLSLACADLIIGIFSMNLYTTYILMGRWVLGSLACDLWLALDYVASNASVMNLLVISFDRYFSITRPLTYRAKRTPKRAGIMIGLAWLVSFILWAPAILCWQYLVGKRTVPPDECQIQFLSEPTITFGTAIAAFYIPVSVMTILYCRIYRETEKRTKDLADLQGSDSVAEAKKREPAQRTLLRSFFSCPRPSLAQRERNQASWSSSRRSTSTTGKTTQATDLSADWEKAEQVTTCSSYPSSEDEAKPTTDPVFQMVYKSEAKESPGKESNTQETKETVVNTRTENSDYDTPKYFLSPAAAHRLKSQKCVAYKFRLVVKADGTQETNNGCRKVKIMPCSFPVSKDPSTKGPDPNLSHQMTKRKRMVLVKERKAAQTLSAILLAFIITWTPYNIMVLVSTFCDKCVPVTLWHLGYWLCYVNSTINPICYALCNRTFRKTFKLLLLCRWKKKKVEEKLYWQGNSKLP

SMILES | EC50
CCN(Cc1ccccc1)C(=O)C1CCN(S(=O)(=O)c2ccc3[nH]ncc3c2)CC1 | 1450 nM
CCN(C(=O)C1CCN(S(=O)(=O)c2ccc(-n3cccn3)cc2)CC1)[C@H](C)c1ccccc1 | 1200 nM
CCN(Cc1ccccc1)C(=O)C1CCN(S(=O)(=O)c2ccc3cn[nH]c3c2)CC1 | 1950 nM
CCN(C(=O)C1CCN(S(=O)(=O)c2ccc3[nH]ncc3c2)CC1)[C@H](C)c1ccccc1 | 640 nM
CCN(C(=O)C1CCN(S(=O)(=O)c2ccc3cn[nH]c3c2)CC1)[C@H](C)c1ccccc1 | 860 nM
CCN(C(=O)C1CCN(S(=O)(=O)c2ccc(OC)cc2)CC1)[C@H](C)c1ccccc1 | 1570 nM
CCN(Cc1ccccc1C(F)(F)F)C(=O)C1(F)CCN(S(=O)(=O)c2ccc3[nH]ncc3c2)CC1 | 710 nM

Further lines, results first:

EC50 | SMILES
320 nM | CCCN(Cc1ccccc1C(F)(F)F)C(=O)C1CCN(S(=O)(=O)c2ccc3[nH]ncc3c2)CC1
540 nM | CCN(Cc1ccccc1C(F)(F)F)C(=O)C1CCN(S(=O)(=O)c2ccc3[nH]ncc3c2)CC1
1200 nM | CCN(Cc1ccccc1C(F)(F)F)C(=O)C1CCN(S(=O)(=O)c2ccc3cn[nH]c3c2)CC1
300 nM | CCN(Cc1ccccc1Cl)C(=O)C1CCN(S(=O)(=O)c2ccc3[nH]ncc3c2)CC1

Same assay, conditions: CHO-K1 rat M5, Fluo-4 calcium flux, at 30 µM (top of the series)

% ACh max response | SMILES
inactive | CCN(Cc1ccccc1)C(=O)C1CCN(S(=O)(=O)c2ccc3c(c2)OCCO3)CC1
inactive | CCN(Cc1ccccc1)C(=O)C1CCN(S(=O)(=O)c2ccc(OC)cc2)CC1
